Earlier results in US20160331866A1, “TISSUE REGENERATION MEMBRANE FOR REPAIR AND REGENERATION OF PERIPHERAL NERVE” (NATIONAL CHENG KUNG UNIVERSITY, priority 2015, published 2016).

Details: conventionally oral dose form

| concentration of the active ingredient in the blood | Compound |
| --- | --- |
| 160 µM | COc1ccc2c(c1)c(CC(=O)O)c(C)n2C(=O)c1ccc(Cl)cc1 [Indomethacin] |
| 20 ng/mL | CC(C)(O)c1ccccc1CC[C@@H](SCC1(CC(=O)O)CC1)c1cccc(/C=C/c2ccc3ccc(Cl)cc3n2)c1 [Montelukast] |
| 8.46 to 25.38 µM | CC(c1cc2ccccc2s1)N(O)C(N)=O (stereo not shown) [Zileuton] |
| 832 to 1660 µM | CC(=O)Oc1ccccc1C(=O)O [aspirin, acetylsalicylic acid] |
